Key:
[1] = tested on: human large intestine cancer cell line (HCT-116); assay: Human large intestine cancer (HCT-116) cell growth inhibition test; assay type: cell-based; conditions: HCT-116, 72 h, culture for 3 days, sulforhodamine B, read-out: GI50 value, HCT-116 cell growth inhibition
Outline: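 HCT-116 cells were seeded at 0.5 to 2.0×10^3 cells/well in McCoy's 5A with 10% FBS and dosed with compound at 0.1% final DMSO after overnight culture. Growth was measured by sulforhodamine B absorbance after 3 days. GI50 was calculated from the inhibition rate at each concentration.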

[2] = tested on: human large intestine cancer cell (HCT 116) tumor; assay: Tumor growth inhibition test in HCT 116-subcutaneously transplanted nude mouse; assay type: in vivo; conditions: dose of 100 mg/kg, repeated oral administration, HCT-116 in female BALB nude mice, control group = 100%, read-out: rate of suppression of tumor volume
Method: A human large intestine cancer cell line (HCT-116) was cultured in a McCoy's 5A medium containing 10% FBS and 1% penicillin/streptomycin/amphotericin B and adjusted to 1.0×10^8 cells/mL with PBS or Hanks solution (HBSS(−)). The prepared cell suspension was subcutaneously injected at 0.1 mL/mouse to the right abdomens of female BALB nude mice (supplied by Charles River Laboratories Japan, Inc.). After rearing for a certain period, the long diameter (mm) and short diameter (mm) of tumor were measured with electronic calipers, and the tumor volume was calculated according to the following expression: Tumor volume (mm^3)=(Long diameter)×(Short diameter)×(Short diameter)×0.5
Individuals whose tumor volume was within the range of 50 to 200 mm^3 were selected and grouped such that the tumor volume was almost equivalent, then a test compound or only a solvent was orally administered in a repeated manner, and the body weights and tumor volume were measured. A test compound was suspended in a 0.5 w/v % aqueous methylcellulose solution (0.5% MC) (manufactured by Wako Pure Chemical Industries, Ltd.) and orally administered at 10 mL/kg in a repeated manner. When the tumor volume of the control group was defined as 100%, the rate of suppression of tumor volume (%) at each dose of the test compound was calculated.

PLK1 = target: T1, PLK1 (Homo sapiens, UniProt P53350); assay: PLK1 enzyme (polo-like kinase) inhibition test; assay type: biochemical; conditions: [γ-33P]ATP, casein substrate; Ki=IC50/(1+S/Km); read-out: Ki value of PLK1 inhibitory activity
T1 construct: purchased Carna Biosciences, Inc. 05-157
Outline: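 Recombinant PLK1 phosphorylates casein with [γ-^33P]ATP in MOPS buffer (pH 7.0) containing DTT and magnesium acetate, 20 min at 30° C. Reaction stopped with TCA; washed precipitate counted by liquid scintillation. IC50 for inhibition of ^33P incorporation into casein, converted to Ki via Ki=IC50/(1+S/Km).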

T1 sequence (P53350 whole entry): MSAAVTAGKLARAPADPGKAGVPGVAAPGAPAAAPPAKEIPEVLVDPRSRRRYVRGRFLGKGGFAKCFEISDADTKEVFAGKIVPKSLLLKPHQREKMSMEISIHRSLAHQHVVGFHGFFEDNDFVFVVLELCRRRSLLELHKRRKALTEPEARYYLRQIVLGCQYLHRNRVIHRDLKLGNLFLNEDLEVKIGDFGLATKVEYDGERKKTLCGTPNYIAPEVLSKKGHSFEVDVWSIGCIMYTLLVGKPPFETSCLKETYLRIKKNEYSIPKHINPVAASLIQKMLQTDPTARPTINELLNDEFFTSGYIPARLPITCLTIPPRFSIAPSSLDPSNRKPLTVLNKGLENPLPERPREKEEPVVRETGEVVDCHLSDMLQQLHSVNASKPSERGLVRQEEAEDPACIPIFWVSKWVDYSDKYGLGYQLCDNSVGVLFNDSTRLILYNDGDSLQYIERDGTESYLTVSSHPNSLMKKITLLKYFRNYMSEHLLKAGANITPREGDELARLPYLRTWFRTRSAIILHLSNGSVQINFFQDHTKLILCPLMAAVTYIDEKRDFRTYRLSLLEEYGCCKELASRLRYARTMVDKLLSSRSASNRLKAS

| Compound | GI50 [1] | Ki (PLK1) | inhibition in vivo at 100 mg/kg [2] |
| --- | --- | --- | --- |
| Cc1ccccc1NC(=O)N1Cc2c(NC(=O)C3([Si](C)(C)C)CCC3)n[nH]c2C1(C)C [IV-21, 6,6-Dimethyl-N-(o-tolyl)-3-[1-(trimethylsilyl)cyclobutanecarboxamido]-4,6-dihydropyrrolo[3,4-c]pyrazole-5(1H)-carboxamide] | ≤ 0.1 µM | ≥ 5 µM | ≥ 50% |
| CC1(C)c2[nH]nc(NC(=O)C3([Si](C)(C)C)CCC3)c2CN1C(=O)Nc1c(F)cccc1Cl [IV-113, N-(2-Chloro-6-fluorophenyl)-6,6-dimethyl-3-[1-(trimethylsilyl)cyclobutanecarboxamido]-4,6-dihydropyrrolo[3,4-c]pyrazole-5(1H)-carboxamide] | ≤ 0.1 µM | ≥ 5 µM | ≥ 50% |
| CC1(C)c2[nH]nc(NC(=O)C3([Si](C)(C)C)CCC3)c2CN1C(=O)Nc1ccccc1Br [IV-15, N-(2-Bromophenyl)-6,6-dimethyl-3-[1-(trimethylsilyl)cyclobutanecarboxamido]-4,6-dihydropyrrolo[3,4-c]pyrazole-5(1H)-carboxamide] | ≤ 0.1 µM | ≥ 5 µM | ≥ 50% |
| CC1(C)c2[nH]nc(NC(=O)C3([Si](C)(C)C)CCC3)c2CN1C(=O)Nc1c(F)ccc2cc(Cl)oc12 [IV-1063, N-(2-Chloro-6-fluorobenzofuran-7-yl)-6,6-dimethyl-3-[1-(trimethylsilyl)cyclobutanecarboxamido]-4,6-dihydropyrrolo[3,4-c]pyrazole-5(1H)-carboxamide] | ≤ 0.1 µM | ≥ 5 µM | ≥ 50% |

More lines, main results first:

| GI50 [1] | Ki (PLK1) | Compound | inhibition in vivo at 100 mg/kg [2] |
| --- | --- | --- | --- |
| ≤ 0.1 µM | ≥ 5 µM | Cc1ccc(F)c(NC(=O)N2Cc3c(NC(=O)C4([Si](C)(C)C)CCC4)n[nH]c3C2(C)C)c1 [IV-127, N-(2-Fluoro-5-methylphenyl)-6,6-dimethyl-3-[1-(trimethylsilyl)cyclobutanecarboxamido]-4,6-dihydropyrrolo[3,4-c]pyrazole-5 (1H)-carboxamide] | ≥ 50% |
| ≤ 0.1 µM | ≥ 5 µM | Cc1cc(F)ccc1NC(=O)N1Cc2c(NC(=O)C3([Si](C)(C)C)CCC3)n[nH]c2C1(C)C [IV-359, N-(4-Fluoro-2-methylphenyl)-6,6-dimethyl-3-[1-(trimethylsilyl)cyclobutanecarboxamido]-4,6-dihydropyrrolo[3,4-c]pyrazole-5 (1H)-carboxamide] | ≥ 50% |
| ≤ 0.1 µM | ≥ 5 µM | CC1(C)c2[nH]nc(NC(=O)C3([Si](C)(C)C)CCC3)c2CN1C(=O)Nc1c(F)ccc(F)c1F [IV-597, 6,6-Dimethyl-N-(2,3,6-trifluorophenyl)-3-[1-(trimethylsilyl)cyclobutanecarboxamido]-4,6-dihydropyrrolo[3,4-c]pyrazole-5(1H)-carboxamide] | ≥ 50% |
| ≤ 0.1 µM | ≥ 5 µM | CC1(C)c2[nH]nc(NC(=O)C3([Si](C)(C)C)CCC3)c2CN1C(=O)Nc1c(F)cccc1OC(F)F [IV-169, N-[2-(Difluoromethoxy)-6-fluorophenyl]-6,6-dimethyl-3-[1-(trimethylsilyl)cyclobutanecarboxamido]-4,6-dihydropyrrolo[3,4-c]pyrazole-5(1H)-carboxamide] | – |
| ≤ 0.1 µM | ≥ 5 µM | COc1cccc(F)c1NC(=O)N1Cc2c(NC(=O)C3([Si](C)(C)C)CCC3)n[nH]c2C1(C)C [IV-161, N-(2-Fluoro-6-methoxyphenyl)-6,6-dimethyl-3-[1-(trimethylsilyl)cyclobutanecarboxamido]-4,6-dihydropyrrolo[3,4-c]pyrazole-5(1H)-carboxamide] | – |

Reference: US10894798B2, “Substituted dihydropyrrolopyrazole derivative” (UBE INDUSTRIES, LTD., priority 2015, dated 2021)
